From patent US12642783B2, “Method for treating vaso occlusive crises associated with Sickle cell disease” (Nicox SA, priority 2020, dated 2026)

Key:
vaso-occlusive crises = settings: sickle cell disease; cited from earlier work
Nitrite = assay: Plasma nitrite levels after intravenous administration in Sickle Cell mouse model (thrombin challenge); format: in vivo; settings: Homozygous Sickle Cell transgenic mice, 15 mg/kg intravenous, at one hour after thrombin (FIG. 1)
Description: (§1) This trial was conducted to assess the efficacy of 4-(nitrooxy)butyl-(2S)-2-(6-methoxy-2-naphthyl) propanoate (naproxcinod) to increase Nitrite (a precursor to NO), and cGMP in Homozygous Townes Sickle Cell transgenic mice.
(§2) Homozygous Sickle Cell transgenic mice were treated with either 4-(nitrooxy)butyl-(2S)-2-(6-methoxy-2-naphthyl) propanoate (naproxcinod) (15 mg/kg) or naproxen (15 mg/kg—as a control) or saline (as a vehicle control) by intravenous injection. After one hour, the mice were injected with thrombin (1 u/20 g) to induce platelet activation. Blood was drawn at […] after thrombin administration. Plasma nitrite levels were measured as a marker of nitric oxide bioavailability. cGMP levels were measured after addition of IBMX (3-Isobutyl-1-methylxanthine) (100 uM) to prevent cGMP degradation. Platelets were isolated and activation measured by surface expression of p-selectin.

cGMP = cGMP levels after intravenous administration in Sickle Cell mouse model (thrombin challenge); format: in vivo, mice; settings: for cGMP levels compared to thrombin alone or naproxen administration: Homozygous Sickle Cell transgenic mice, 15 mg/kg intravenous, p<0.01 (FIG. 2)
Description: as §1, §2

[1] = tested on: osteoarthritis (OA) of the knee; settings: human studies, OA of the knee patients; cited from earlier work
blood pressure = settings: 3 pivotal trials, 2,734 patients with osteoarthritis of the hip or knee; cited from earlier work
[2] = approved package insert (Novartis, 2019); cited from earlier work

NC(=O)NO [Droxia, hydroxyurea]
frequency of vaso-occlusive crises (vaso-occlusive crises): reduce the frequency

NC(=O)CC[C@H](N)C(=O)O [Endari, L-glutamine]
frequency of vaso-occlusive crises (vaso-occlusive crises): reduce the frequency

COc1ccc2cc([C@H](C)C(=O)OCCCCO[N+](=O)[O-])ccc2c1 [naproxcinod, 4-(nitrooxy)butyl-(2S)-2-(6-methoxy-2-naphthyl) propanoate]
nitrite concentration compared to thrombin alone or naproxen administration (Nitrite): statistically greater
cGMP levels compared to thrombin alone or naproxen administration (cGMP; at 30 minutes after thrombin): significantly increased
cGMP levels compared to thrombin alone or naproxen administration (cGMP; at 60 minutes after thrombin): significantly increased
cyclic guanosine monophosphate level (cGMP level) (cGMP; Sickle cell animal model, summary statement): able to increase
management of the signs and symptoms of OA [1]: clinical efficacy and safety
hypertensive burden induced by most NSAIDs (blood pressure): reduce some of the hypertensive burden

B1: crizanlizumab-tmca (antibody, chains of the INN, looked up, V domains shown)
VH: QVQLVQSGAEVKKPGASVKVSCKVSGYTFTSYDINWVRQAPGKGLEWMGWIYPGDGSIKYNEKFKGRVTMTVDKSTDTAYMELSSLRSEDTAVYYCARRGEYGNYEGAMDYWGQGTLVTVSS
VL: DIQMTQSPSSLSASVGDRVTITCKASQSVDYDGHSYMNWYQQKPGKAPKLLIYAASNLESGVPSRFSGSGSGTDFTLTISSLQPEDFATYYCQQSDENPLTFGGGTKVEIK
notes: FDA-approved drug for vaso-occlusive crises complication in sickle cell disease
incidence rate of arthralgia [2]: 18%
incidence rate of back pain [2]: 15%
frequency of vaso-occlusive crises (vaso-occlusive crises): reduce the frequency
